In patent US6416998B1, “Plasmid encoding a modified steroid hormone” (Baylor College of Medicine, priority 1992, dated 2002):

Assays:
[1] = target: T1, UP-1 mutant receptor (hPR) (Homo sapiens, UniProt P06401); assay: Yeast transcription assay (β-galactosidase activity); assay type: cell-based; conditions: for activation of mutant receptor: different concentrations (FIG. 5A); for transcriptional activity (in words): 1 μM, 4 hours
T1 construct: the wild type receptor is truncated by 54 authentic amino acids and 12 novel amino acids are added at the C-terminus; expressed in transfected cells; host or cells: Saccharomyces cerevisiae BJ3505 transformed with the UP-1 plasmid
T1 sequence (P06401 with tags, fused parts or gaps): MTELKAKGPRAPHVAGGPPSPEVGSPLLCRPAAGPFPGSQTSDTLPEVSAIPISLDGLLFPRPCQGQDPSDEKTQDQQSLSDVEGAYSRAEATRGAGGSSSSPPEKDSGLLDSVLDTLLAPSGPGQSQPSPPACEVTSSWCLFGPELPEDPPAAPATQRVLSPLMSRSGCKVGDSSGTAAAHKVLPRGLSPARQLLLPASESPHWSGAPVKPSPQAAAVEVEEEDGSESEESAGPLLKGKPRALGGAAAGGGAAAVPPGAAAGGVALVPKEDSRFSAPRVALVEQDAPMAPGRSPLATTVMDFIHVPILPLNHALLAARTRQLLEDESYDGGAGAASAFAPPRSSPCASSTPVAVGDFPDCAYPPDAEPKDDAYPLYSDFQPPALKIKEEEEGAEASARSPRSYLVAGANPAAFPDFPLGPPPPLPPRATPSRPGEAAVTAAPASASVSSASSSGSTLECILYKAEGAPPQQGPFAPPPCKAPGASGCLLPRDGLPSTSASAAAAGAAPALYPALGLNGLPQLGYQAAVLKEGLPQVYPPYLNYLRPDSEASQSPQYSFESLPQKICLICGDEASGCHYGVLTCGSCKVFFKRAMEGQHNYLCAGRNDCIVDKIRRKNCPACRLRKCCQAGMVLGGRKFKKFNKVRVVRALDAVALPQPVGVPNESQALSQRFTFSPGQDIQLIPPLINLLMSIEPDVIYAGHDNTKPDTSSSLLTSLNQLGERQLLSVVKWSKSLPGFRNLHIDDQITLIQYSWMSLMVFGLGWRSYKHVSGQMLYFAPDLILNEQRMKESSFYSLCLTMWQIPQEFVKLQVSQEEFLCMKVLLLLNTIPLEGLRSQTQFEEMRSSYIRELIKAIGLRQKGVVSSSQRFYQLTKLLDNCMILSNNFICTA
Method: (§1) Saccharomyces cerevisiae cells containing YEphPRB and the reporter plasmid were grown overnight at 30° C. in minimal media containing 2% glucose. The cells were subcultured in fresh medium and allowed to grow until early mid-log phase (O.D.600nm=1.0). Induction of receptor was initiated by the addition of 100 μM copper sulfate to the culture. Cells were harvested by centrifugation at 1,500 ×g for 10 minutes and resuspended in the appropriate buffer. This and all subsequent steps of analysis of the yeast extracts were done at 4° C.
(§2) When the cell density reached O.D.600nm=1.0, hormones were added to the cultures.
(§3) The plate assays used to identify the receptor mutants are qualitative in nature. To further characterize the properties of UP-1, the activity of the receptor mutants was compared with that of the wild type receptor in a transcription assay. […] The β-galactosidase activity in the cell cytosol was then measured.

[2] = target: T2, wild type receptor (hPR-B) (Homo sapiens, UniProt P06401); assay: as above; assay type: cell-based, yeast (Saccharomyces cerevisiae); conditions: 1 μM; for transcriptional activity (in words): 4 hours
T2 construct: expressed in transfected cells; host or cells: Saccharomyces cerevisiae BJ3505 transformed with YEphPR-B
T2 sequence (P06401 1-933): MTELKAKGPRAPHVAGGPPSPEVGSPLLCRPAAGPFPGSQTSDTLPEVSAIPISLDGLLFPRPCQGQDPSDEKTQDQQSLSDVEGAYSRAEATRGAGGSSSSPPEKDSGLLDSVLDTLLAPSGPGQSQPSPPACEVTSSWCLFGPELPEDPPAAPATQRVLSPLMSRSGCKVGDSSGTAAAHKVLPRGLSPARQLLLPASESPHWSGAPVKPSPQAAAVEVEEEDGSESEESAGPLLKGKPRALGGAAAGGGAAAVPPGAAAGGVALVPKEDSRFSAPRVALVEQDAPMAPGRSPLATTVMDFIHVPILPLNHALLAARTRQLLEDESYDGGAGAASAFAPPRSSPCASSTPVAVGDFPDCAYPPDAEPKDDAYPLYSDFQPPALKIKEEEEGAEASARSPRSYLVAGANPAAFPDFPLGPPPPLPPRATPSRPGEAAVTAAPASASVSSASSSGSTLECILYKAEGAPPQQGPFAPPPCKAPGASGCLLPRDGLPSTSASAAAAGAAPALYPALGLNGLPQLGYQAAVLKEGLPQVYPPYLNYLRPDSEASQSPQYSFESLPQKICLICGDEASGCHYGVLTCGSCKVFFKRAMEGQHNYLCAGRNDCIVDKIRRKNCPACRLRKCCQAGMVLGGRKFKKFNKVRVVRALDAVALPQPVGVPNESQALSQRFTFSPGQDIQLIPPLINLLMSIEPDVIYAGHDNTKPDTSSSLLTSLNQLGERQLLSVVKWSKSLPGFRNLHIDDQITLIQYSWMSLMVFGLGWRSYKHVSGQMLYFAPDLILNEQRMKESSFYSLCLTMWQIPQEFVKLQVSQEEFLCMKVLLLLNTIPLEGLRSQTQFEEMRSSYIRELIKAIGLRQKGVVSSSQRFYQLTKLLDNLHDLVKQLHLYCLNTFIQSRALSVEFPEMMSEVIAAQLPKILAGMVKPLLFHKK
Method: as §1, §2, §3

[3] = target: T3, wild type receptor (phPR-B) (Homo sapiens, UniProt P06401); assay: Transient transfection CAT assay in CV-1 cells; assay type: cell-based, monkey
T3 sequence (P06401 1-933): T2 sequence (P06401 1-933)
Method: (§4) Five μg of chloramphenicol acetyltransferase (CAT) reporter plasmid, containing two copies of a PRE/GRE from the tyrosine amino transferase gene linked to the thymidine kinase promoter ([…]), were used in transient cotransfection experiments together with 5 μg of wild type or mutant receptor DNAs.
(§5) CAT assays were performed as described above. In panel (B), CV-1 cells were transiently transfected as in (A).
Cell-type specific factors can influence the activity of the transactivating domains of steroid receptors. In order to evaluate this possibility, wild type and mutant receptors were transfected into CV-1 cells.

[4] = target: T4, YEphPR-B879 truncated receptor (Homo sapiens, UniProt P06401); assay: Yeast transcription assay; assay type: cell-based
T4 construct: YEphPR-B879, containing a stop codon corresponding to amino acid 880; expressed in transfected cells; host or cells: Saccharomyces cerevisiae (yeast)
T4 sequence (P06401 1-879): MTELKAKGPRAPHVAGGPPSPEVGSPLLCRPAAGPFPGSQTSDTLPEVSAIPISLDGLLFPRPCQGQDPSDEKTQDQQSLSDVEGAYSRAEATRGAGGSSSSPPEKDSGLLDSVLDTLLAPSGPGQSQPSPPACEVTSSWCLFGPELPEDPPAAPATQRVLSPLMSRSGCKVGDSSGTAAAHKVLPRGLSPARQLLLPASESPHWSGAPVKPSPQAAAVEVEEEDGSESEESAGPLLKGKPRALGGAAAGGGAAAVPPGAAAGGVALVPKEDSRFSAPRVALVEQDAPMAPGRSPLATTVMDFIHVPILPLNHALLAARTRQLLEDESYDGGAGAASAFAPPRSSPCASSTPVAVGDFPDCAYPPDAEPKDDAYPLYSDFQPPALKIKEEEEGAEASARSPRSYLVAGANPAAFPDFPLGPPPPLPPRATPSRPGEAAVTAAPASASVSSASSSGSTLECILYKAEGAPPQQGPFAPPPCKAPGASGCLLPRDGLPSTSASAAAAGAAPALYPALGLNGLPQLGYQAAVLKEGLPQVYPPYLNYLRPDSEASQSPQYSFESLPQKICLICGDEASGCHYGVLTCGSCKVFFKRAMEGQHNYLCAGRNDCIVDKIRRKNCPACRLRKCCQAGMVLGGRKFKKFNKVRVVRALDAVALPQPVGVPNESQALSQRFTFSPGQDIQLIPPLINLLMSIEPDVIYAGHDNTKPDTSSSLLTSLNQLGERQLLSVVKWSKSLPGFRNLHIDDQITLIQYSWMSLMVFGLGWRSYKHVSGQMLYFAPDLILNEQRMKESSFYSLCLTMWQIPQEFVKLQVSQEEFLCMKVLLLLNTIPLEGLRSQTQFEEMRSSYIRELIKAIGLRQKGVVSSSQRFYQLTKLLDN
Method: as §2
(§6) CJ236 cells were infected with mpPR90 (an M13 plasmid containing hPR cDNA).
(§7) Yeast cells were grown in the presence of 100 μM CuSO4. Transcriptional analysis was done as described above. Experiments were done in triplicate and transcriptional activities were normalized with respect to protein.

[5] = target: T5, YEphPRB891 truncated receptor (Homo sapiens, UniProt P06401); assay: Yeast transcription assay; assay type: cell-based
T5 construct: YEphPRB891, containing a stop codon at amino acid 892; expressed in transfected cells; host or cells: Saccharomyces cerevisiae (yeast)
T5 sequence (P06401 1-891): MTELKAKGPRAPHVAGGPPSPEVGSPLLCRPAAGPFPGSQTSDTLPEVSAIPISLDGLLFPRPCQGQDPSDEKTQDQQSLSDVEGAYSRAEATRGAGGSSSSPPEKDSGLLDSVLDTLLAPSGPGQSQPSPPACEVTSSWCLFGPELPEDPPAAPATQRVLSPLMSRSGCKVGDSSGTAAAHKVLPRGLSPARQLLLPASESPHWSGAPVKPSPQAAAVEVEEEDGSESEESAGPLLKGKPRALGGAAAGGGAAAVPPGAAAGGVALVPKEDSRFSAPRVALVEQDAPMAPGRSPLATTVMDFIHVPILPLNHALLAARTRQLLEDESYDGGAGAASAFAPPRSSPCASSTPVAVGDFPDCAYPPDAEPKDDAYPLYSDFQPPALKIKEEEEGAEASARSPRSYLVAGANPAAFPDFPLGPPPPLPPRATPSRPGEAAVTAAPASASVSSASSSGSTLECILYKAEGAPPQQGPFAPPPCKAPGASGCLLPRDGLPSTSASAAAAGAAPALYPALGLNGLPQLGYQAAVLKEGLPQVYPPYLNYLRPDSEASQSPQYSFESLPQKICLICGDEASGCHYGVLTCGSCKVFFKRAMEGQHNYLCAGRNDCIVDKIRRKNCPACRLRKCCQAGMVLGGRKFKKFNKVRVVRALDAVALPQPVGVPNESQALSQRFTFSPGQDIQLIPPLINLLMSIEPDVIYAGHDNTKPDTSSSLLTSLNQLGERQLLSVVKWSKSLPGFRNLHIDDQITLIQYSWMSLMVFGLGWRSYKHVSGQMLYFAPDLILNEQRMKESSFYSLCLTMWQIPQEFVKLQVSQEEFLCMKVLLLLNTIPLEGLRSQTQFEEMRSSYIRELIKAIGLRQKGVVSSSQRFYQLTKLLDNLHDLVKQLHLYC
Method: as §2, §6, §7

891 mutant (phPR-B891) = target: T6, 891 mutant (phPR-B891) (Homo sapiens, UniProt P06401); assay: Transient transfection CAT assay ([…]) in HeLa cells; assay type: cell-based; conditions: 10^−7M
T6 construct: YEphPRB891, containing a stop codon at amino acid 892; expressed in transfected cells; host or cells: HeLa cells (A16)
T6 sequence (P06401 1-891): T5 sequence (P06401 1-891)
Method: as §4, §5

wild type PR (phPR-B) = target: T7, wild type PR (phPR-B) (Homo sapiens, UniProt P06401); assay: as above; assay type: cell-based; conditions: 10^−7M, 48 hours
T7 sequence (P06401 1-933): T2 sequence (P06401 1-933)
Method: as §4, §5

Row | SMILES | transcriptional activity (in words) [1] | transcriptional activity (in words) [2] | also measured
1 | CN(C)c1ccc(C2CC3(C)C(CCC34CCCO4)C3CCC4=CC(=O)CCC4=C23)cc1 (stereo not drawn) [Org31376, (11β,14β,17α)-4′,5′-dihydro-11-(4-dimethylaminophenyl)-[spiroestra-4,9-diene-17,2′(3′H)-furan]-3-one] | – | – | activation of mutant receptor [1]: activated
2 | C[C@H]1CC2=CC(=O)CCC2=C2[C@@H]1[C@@H]1CC[C@@]3(CCCO3)[C@@]1(C)C[C@@H]2c1ccc(N(C)C)cc1 [Org31806, (7β,11β,17β)-11-(4-dimethylaminophenyl)-7-methyl-4′,5′-dihydrospiro[ester-4,9-diene-17,2′(3′H)-furan]-3-one] | – | – | activation of mutant receptor [1]: activated
3 | CCC(=O)[C@@]1(C)CC[C@H]2[C@@H]3CCC4=CC(=O)CCC4=C3CC[C@@]21C [R5020] | had no effect | – | –
4 | C[C@]12CCC(=O)C=C1CC[C@@H]1[C@@H]2[C@@H](O)C[C@@]2(C)[C@H]1CC[C@]2(O)C(=O)CO [cortisol] | inactive | inactive | –
5 | C[C@@H]1C[C@H]2[C@@H]3CCC4=CC(=O)C=C[C@]4(C)[C@@]3(F)[C@@H](O)C[C@]2(C)[C@@]1(O)C(=O)CO [dexamethasone] | inactive | inactive | –
6 | C[C@]12CC[C@@H]3c4ccc(O)cc4CC[C@H]3[C@@H]1CC[C@@H]2O [estradiol] | inactive | inactive | –
7 | COc1ccc2c(c1)CCC(c1ccccc1)=C2c1ccc(OCCN2CCCC2)cc1 [nafoxidine] | inactive | inactive | –
8 | CC(=O)[C@H]1CC[C@H]2[C@@H]3CCC4=CC(=O)CC[C@]4(C)[C@H]3CC[C@]12C [progesterone] | – | – | receptor activation (CAT) [3]: activated; induction of transcription [2]: greater than 60 fold; activation of transcription [4]: inactive; activation of transcription [5]: inactive; induction of CAT activity (891 mutant (phPR-B891)): no activity; induction of transcription of CAT gene reporter (wild type PR (phPR-B)): 3- to 4 fold
